According to patent US6670493B2, “Methods and compositions for treating diseases due to androgen deficiency with glucocorticoid receptor antagonist compounds and new compounds” (Jenapharm GmbH & Co. KG, priority 2001, dated 2003):

How the values were obtained:
[1] = test system: primary rat Leydig cells; experiment: hCG-stimulated testosterone production in primary rat Leydig cells treated with dexamethasone with or without glucocorticoid receptor antagonist (Elisa); assay type: cell-based; settings: for Testosterone Production, Average value ± SD (%): hCG alone = 100, basal = 0
Description: (§1) Testicular cells were prepared from the testicles of sexually mature, 12-week old, male Wistar rats by means of a collagenase treatment. Leydig cells were obtained from this preparation by a continuous Percoll gradient centrifugation.
(§2) Freshly prepared Leydig cells were sown in microtiter plates in 100 μL of DMEM/F12 with phenol red (20,000) cells/well) with addition of 0.1% BSA, penicillin (100 U/ml) and streptomycin (100 μg/ml). After one hour, the medium was changed with addition of substance. For 18 hours, the Leydig cells were incubated with dexamethasone alone or together with glucocorticoid receptor antagonists (250 μL of DMEM/well with addition of penicillin (100 U/ml) and streptomycin (100 μg/ml)). […] Ethanol was used as solvent for dexamethasone and the glucocorticoid receptor antagonists; the final concentration of the ethanol was not more than 0.2%.
Aliquots of the supernatant were frozen at −70° C. Testosterone was measured with a commercial Elisa (IBL, Hamburg). The standard curve of testosterone Elisa was then adapted to the cell culture conditions.

[2] = test system: primary rat Leydig cells; experiment: Cell damage: activity of mitochondrial succinate dehydrogenase (WST-1 test) in primary rat Leydig cell cultures; assay type: cell-based
Description: as §1, §2
Parallel to the testosterone measurement, cell damage was determined after the 26 hours by measuring the activity of the mitochondrial succinate dehydrogenase (WST-1 test, Böhringer, Mannheim).

[3] = test system: male rats of the CD breeding line; experiment: Male sexual behavior of rats after chronic dexamethasone treatment with or without RU 38486; assay type: in vivo, rat; settings: for Male Sexual Behavior (Copulations in 5 minutes): day 9, average ± standard error
Description: (§3) Sexually mature, 3-month old male rats of the CD breeding line (Charles River GmbH, Sulzfeld, Germany) were kept in groups of 4 animals under controlled illumination (light:darkness 12:12 hours) with free access to food and drinking water. After a 1-week adaptation, the animals were tested by exposure to ovarectomized, estrogen-treated females for the presence of male sexual behavior (G. Dörner, Hormones and brain differentiation, Elsevier, Amsterdam, 1976, pp. 126-132). […] The animals of the reference group received intraperitoneal injections of dexamethasone (Fortecortin: Merck, Darmstadt, Germany) daily according to the following schedule: 0.5 mg/kg on days 1 to 3, 1 mg/kg on days 4 to 6 and 1.5 mg/kg on days 7 to 9. The control animals were injected with placebo (0.9% sterile NaCl solution. In addition to the dexamethasone treatment, the experimental group received subcutaneous injections of the glucocorticoid receptor antagonist RU 38486 (Sigma, Deisenhofen, Germany) in sesame oil solution in a dose of 10 mg/kg daily according to the schedule given above.
(§4) Male sexual behavior was evaluated on the ninth day by the method given above. After the behavior test, blood samples were taken from the retroorbital plexus for determining the serum testosterone level. The testosterone was determined with a commercial test formulation (IBL, Hamburg, Germany).

[4] = test system: male rats of the CD breeding line; experiment: Serum testosterone level of rats after chronic dexamethasone treatment with or without RU 38486; assay type: in vivo, rat; settings: for Serum Testosterone: day 9, average ± standard error
Description: as §3, §4

[5] = hCG 0.5 ng/ml + 100 nM DEX alone
[6] = dexamethasone alone i.p. 0.5-1.5 mg/kg daily for 9 days
[7] = hCG 0.5 ng/ml + 100 nM DEX + glucocorticoid receptor antagonist 1 μm
[8] = hCG + 100 nM DEX + glucocorticoid receptor antagonist 1 μm
[9] = dexamethasone i.p. 0.5-1.5 mg/kg daily for 9 days + RU 38486 s.c. 10 mg/kg daily
[10] = simultaneous administration of dexamethasone and RU 38486

Row | Compound | Testosterone Production, Average value ± SD [1, 7] [ng/mL] | Testosterone Production, Average value ± SD (%) [1, 7] [%] | Succinate Dehydrogenase Activity, Average value ± SD [2, 8] [Absorptions Units] | other results
1 | C[C@@H]1C[C@H]2[C@@H]3CCC4=CC(=O)C=C[C@]4(C)[C@@]3(F)[C@@H](O)C[C@]2(C)[C@@]1(O)C(=O)CO [DEX, dexamethasone] | – | – | – | Testosterone Production, Average value ± SD [1, 5]: 2.00 ± 0.58P ng/ml; Testosterone Production, Average value ± SD (%) [1, 5]: 44.63 ± 14.08P %; Effect on mitochondrial succinate dehydrogenase activity (in words) ([2]; dexamethasone 10^-7 M): significant inhibition of the mitochondrial activity; Succinate Dehydrogenase Activity, Average value ± SD [2, 5]: 0.192 ± 0.036 Absorptions Units; Male Sexual Behavior (Copulations in 5 minutes) [3, 6]: 4.0 ± 0.9 Copulations in 5 minutes; Serum Testosterone [4, 6]: 2.3 ± 0.2 ng/mL
2 | COCC1(OC)CCC2C3CCC4=CC(=O)CCC4=C3C(c3ccc(C(=NO)C(F)(F)F)cc3)CC21C (stereo not drawn) [GRA1, 4-(17β-methoxy-17α-(methoxymethyl)-estra-4,9-diene-3-one-11β-yl]2,2,2-trifluoroacetophenone-1(Z)-oxime] | 3.57 ± 0.83 | 83.00 ± 20.40 | 0.289 ± 0.040 | –
3 | C[C@]12C[C@H](c3ccc4c(c3)OCO4)C3=C4CCC(=O)C=C4CC[C@H]3[C@@H]1CC[C@@]2(O)C#Cc1ccc(S(C)(=O)=O)cc1 [GRA2] | 3.48 ± 0.64 | 80.97 ± 15.47 | 0.363 ± 0.032 | –
4 | CC12CC(c3ccc(C=NO)cc3)C3=C4CCC(=O)C=C4CCC3C1CCC2(O)C#Cc1ccc(S(C)(=O)=O)cc1 (stereo not drawn) [GRA3, 4-[17β-hydroxy-17α,21-(4′-methylsulfonylphenyl)-19-nor-3-oxopregna-4,9-diene-20-yn-11β-yl]benzaldehyde-1(E)-oxime] | 4.52 ± 1.01 | 106.30 ± 24.75 | 0.313 ± 0.018 | –
5 | CC#C[C@]1(O)CC[C@H]2[C@@H]3CCC4=CC(=O)CCC4=C3[C@@H](c3ccc(N(C)C)cc3)C[C@@]21C [RU38486, 11β-dimethylaminophenyl-17β-hydroxy-17α-propinyl-estra-4,9-diene-3-one] | 4.48 ± 1.14 | 105.23 ± 27.83 | 0.311 ± 0.031 | Male Sexual Behavior (Copulations in 5 minutes) [3, 9]: 9.2 ± 1.0 Copulations in 5 minutes; Effect on male sexual behavior (in words) [3, 10]: retention of male sexual behavior at the level of the placebo group; Serum Testosterone [4, 9]: 20.2 ± 4.9 ng/mL; Effect on serum testosterone concentration (in words) [4, 10]: prevented the reduction in the serum testosterone concentration
